Literature values as cited in patent US20180028686A1 (priority 2014, published 2018).

System: RVFV

In the case of `NC(=O)c1ncn([C@@H]2O[C@H](CO)[C@@H](O)[C@H]2O)n1` [Ribavirin, ribavirin], the IC50 values is given as “low micromolar range”.
